Measurements taken from US6426061B1, “Method and composition for preventing sweat-related odor” (priority 2001, dated 2002).

How the values were obtained:
androgen receptor = settings: prostate cancer cells; cited from earlier work
[1] = system: underarm odor, axillae skin of a panel of human subjects; test: Deodorant value test (modified): underarm odor scored 0-5 by three assessors every 24 h; format: in vivo; settings: Example 2; single solution on one axilla versus vehicle on the other; compared with 8.2% aluminum chlorohydrate and 0.4% chlorhexidine digluconate
Excerpt: A test for the deodorant effects of monensin or resveratrol alone was first carried out. The positive controls were 8.2% aluminum chlorohydrate, a level that is used in most deodorant or antiperspirant products on the market and 0.4% chlorhexidine digluconate, a level that is usually used for bacterial killing. The negative control was a vehicle consisting of 60% ethanol and 40% water. Three experienced underarm odor assessors who are able to correctly rank the odor intensities based on the deodorant value test system U.S. Pat. No. 4,278,658) performed odor assessments. I)odorant assessment scores were recorded according to the inalodor category scale, when applied directly to the axillae skin of a panel of human subjects.
The test described in deodorant value test system has been modified by measuring odor intensity every 24 hours after treatment until odor intensity is detectable (score 1 or up) on a 0-5 score instead of just 24 hours after treatment.
In this test, twenty subjects selected by experienced odor assessors have an average odor score of 3.5 (range from score 3-5). To prevent any any-over effects from occurring, all of subjects have not used any underarm products before test for at least 10 days. […] At 24 hour intervals, each subject was evaluated for underarm odor by averaging the score of the three assessors until odor in test groups was detectable (score 1 or up). […]

apo D = settings: cited from earlier work

For Oc1ccc(C=Cc2cc(O)cc(O)c2)cc1 [Resveratrol, resveratrol], the “effect on expression and function of the androgen receptor” value (androgen receptor) is listed as “inhibit the expression and function of the androgen receptor”.

For CC[C@@]1([C@@H]2O[C@@H]([C@H]3O[C@@](O)(CO)[C@H](C)C[C@@H]3C)C[C@@H]2C)CC[C@H]([C@]2(C)CC[C@]3(C[C@H](O)[C@@H](C)[C@@H]([C@@H](C)[C@@H](OC)[C@H](C)C(=O)O)O3)O2)O1 [monensin], the “effectiveness in preventing underarm odor (deodorant effect, FIG. 1)” value [1] is listed as “more effective in preventing underarm odor than the positive control products” and the “effect on secretion of apo D from cells” value (apo D) is listed as “decreases secretion of apo D from cells”.
